Results reported in the supplement of paper PMC5579334.

Assays:
HS-PSS [1] = test: relative IC50 (inflection point of fitted dose-response curve, CellTox-Green cytotoxicity, 72 h; top asymptote may be below 50%); higher = less potent
Procedure, shortened: (§1)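 MPNST cell lines and primary human Schwann cells were incubated 72 h at 37 °C in 384-well plates holding five 10-fold compound dilutions. CellTox-Green was added before seeding at a final 1:1000 dilution and reported fluorescence from DNA released by disrupted cells. Signals were scaled to vehicle and positive-control wells, and cultures failing plate quality control were dropped. Drug sensitivity score and relative IC50 come from four-parameter logistic fits, with IC50 censored at the top concentration.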

HSC1 [2] = test: as above
Procedure, shortened: as §1

HSC2 [3] = test: as above
Procedure, shortened: as §1

S1507-2 [4] = test: as above
Procedure, shortened: as §1

ST8814 [5] = test: as above
Procedure, shortened: as §1

STS26T [6] = test: as above
Procedure, shortened: as §1

HS-PSS [7] = test: relative IC50 (inflection point of fitted dose-response curve, CellTiter-Glo viability, 72 h; top asymptote may be below 50% inhibition); higher = less potent
Procedure, shortened: (§2)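 MPNST cell lines and primary human Schwann cells (750–1000 cells per well) went into 384-well plates preprinted with each compound at five concentrations in 10-fold steps. Plates were incubated 72 h at 37 °C, 5% CO2. Viability was read as CellTiter-Glo ATP luminescence, scaled between vehicle and positive-control wells, with duplicates averaged where present. Percent inhibition is at the top concentration; drug sensitivity score and relative IC50 (censored at top concentration) come from four-parameter logistic fits.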

HS-Sch-2 = test: as above
Procedure, shortened: as §2

HSC1 [8] = test: as above
Procedure, shortened: as §2

HSC2 [9] = test: as above
Procedure, shortened: as §2

S1507-2 [10] = test: as above
Procedure, shortened: as §2

S462 = test: as above
Procedure, shortened: as §2

ST8814 [11] = test: as above
Procedure, shortened: as §2

STS26T [12] = test: as above
Procedure, shortened: as §2

YST-1 = test: as above
Procedure, shortened: as §2

Structure (SMILES) | relative IC50 (HS-PSS [1]) [nM] | relative IC50 (HSC1 [2]) [nM] | relative IC50 (HSC2 [3]) [nM] | relative IC50 (S1507-2 [4]) [nM] | relative IC50 (ST8814 [5]) [nM] | relative IC50 (STS26T [6]) [nM] | relative IC50 (HS-PSS [7]) [nM] | relative IC50 (HS-Sch-2) [nM] | relative IC50 (HSC1 [8]) [nM] | relative IC50 (HSC2 [9]) [nM] | relative IC50 (S1507-2 [10]) [nM] | relative IC50 (S462) [nM] | relative IC50 (ST8814 [11]) [nM] | relative IC50 (STS26T [12]) [nM] | relative IC50 (YST-1) [nM]
Nc1ccccc1NC(=O)c1ccc(CNc2nccc(-c3cccnc3)n2)cc1 [Mocetinostat] | 2650 | 3390 | 2710 | 3730 | 3100 | 1720 | 2200 | 1400 | 921 | 818 | 1840 | 354 | 1610 | 1400 | 530
CCOc1cc2ncc(C#N)c(Nc3ccc(OCc4ccccn4)c(Cl)c3)c2cc1NC(=O)/C=C/CN(C)C [Neratinib] | > 1000 | > 1000 | > 1000 | > 1000 | > 1000 | > 1000 | 160 | 184 | 251 | 211 | 187 | 203 | 146 | 178 | 327
COc1ccccc1S(=O)(=O)Nc1ccc2c(c1)CN(C)C(=O)N2 [PFI-1] | > 10000 | > 10000 | > 10000 | 3630 | 2080 | > 10000 | 3730 | 1670 | 2820 | 2120 | 1670 | 1710 | 1530 | 1470 | 1720
CC(=O)O[C@H]1C(=O)[C@@]2(C)[C@H]([C@H](OC(=O)c3ccccc3)[C@]3(O)C[C@H](OC(=O)[C@H](O)[C@@H](NC(=O)c4ccccc4)c4ccccc4)C(C)=C1C3(C)C)[C@]1(OC(C)=O)CO[C@@H]1C[C@@H]2O [Paclitaxel] | > 1000 | 24.4 | 19 | 42.3 | 25 | 1.72 | 6.92 | 8.71 | 8.18 | 8.36 | 18.5 | 3.84 | 21.7 | 4.63 | 3.83
Cc1[nH]c2ccccc2c1CCNCc1ccc(/C=C/C(=O)NO)cc1 [Panobinostat] | 89.1 | 125 | 122 | 30.9 | 36.6 | 64.9 | 54.8 | 25.4 | 20.8 | 37.2 | 11.2 | 14.2 | 15 | 35.4 | 9.07
NS(=O)(=O)OC[C@@H]1C[C@@H](n2ccc3c(N[C@H]4CCc5ccccc54)ncnc32)C[C@@H]1O [Pevonedistat] | 222 | 737 | 1220 | 291 | 201 | 137 | 89.6 | 46.8 | 513 | 380 | 208 | 95.2 | 187 | 520 | 128
O=C(CCBr)N1CCN(C(=O)CCBr)CC1 [Pipobroman] | > 10000 | > 10000 | > 10000 | > 10000 | > 10000 | > 10000 | > 10000 | > 10000 | > 10000 | > 10000 | > 10000 | > 10000 | > 10000 | > 10000 | > 10000
Cn1cc(CNCC2CCN(c3ncc(C(=O)NO)cn3)CC2)c2ccccc21 [Quisinostat] | 131 | 208 | 226 | 44.8 | 56.1 | 105 | 42.8 | 45.5 | 34.5 | 56.8 | 18.3 | 20.4 | 16.6 | 43.4 | 8.58
CNC(=O)c1cc(Oc2ccc(NC(=O)Nc3cc(C(C)(C)C)nn3-c3ccc4ncccc4c3)c(F)c2)ccn1 [Rebastinib] | > 1000 | > 1000 | > 1000 | > 1000 | > 1000 | > 1000 | > 1000 | > 1000 | > 1000 | > 1000 | > 1000 | > 1000 | > 1000 | > 1000 | > 1000
CO[C@H]1C[C@@H]2CC[C@@H](C)[C@@](O)(O2)C(=O)C(=O)N2CCCC[C@H]2C(=O)O[C@H]([C@H](C)C[C@@H]2CC[C@@H](OP(C)(C)=O)[C@H](OC)C2)CC(=O)[C@H](C)/C=C(\C)[C@@H](O)[C@@H](OC)C(=O)[C@H](C)C[C@H](C)/C=C/C=C/C=C/1C [Ridaforolimus] | > 100 | > 100 | > 100 | > 100 | > 100 | > 100 | 1.87 | 2.85 | 0.221 | 0.319 | 1.55 | 1.26 | 0.496 | 0.663 | 1.02
CC(C)(C)c1cnc(CSc2cnc(NC(=O)C3CCNCC3)s2)o1 [SNS-032] | 2450 | 11.9 | 6.74 | > 10000 | 27.2 | 15.9 | 26.7 | 48.5 | 5.57 | 3.76 | 141 | 10.4 | 46.6 | 21 | 38.3
O=[N+]([O-])c1ccc2c(c1)S(=O)(=O)C=C2 [Stattic] | 2870 | 2450 | 7900 | 15900 | 4720 | 2270 | 1390 | 1420 | 1880 | 3040 | 9570 | 4990 | 2410 | 2990 | 1740
Nc1nc(NC2CC2)cc(-c2cccc(Cl)c2Cl)n1 [TH588] | > 25000 | 4520 | 3820 | 4040 | 5560 | 3540 | 3820 | 4160 | 5430 | 4280 | 4360 | 6910 | 3830 | 3710 | 3620
C=CCNC1=C2C[C@@H](C)C[C@H](OC)[C@H](O)[C@@H](C)/C=C(\C)[C@H](OC(N)=O)[C@@H](OC)/C=C\C=C(/C)C(=O)NC(=CC1=O)C2=O [Tanespimycin] | 460 | 321 | 258 | 397 | 729 | 160 | 157 | 128 | 421 | 380 | 170 | 310 | 158 | 108 | 49.4
COc1cc([C@@H]2c3cc4c(cc3[C@@H](O[C@@H]3O[C@@H]5CO[C@@H](c6cccs6)O[C@H]5[C@H](O)[C@H]3O)[C@H]3COC(=O)[C@H]23)OCO4)cc(OC)c1O [Teniposide] | 3010 | 1150 | 1430 | 1410 | 219 | 266 | 1240 | 482 | 68.8 | 88.5 | 314 | 112 | 193 | 227 | 50.1
CC[C@@]1(O)C(=O)OCc2c1cc1n(c2=O)Cc2cc3c(CN(C)C)c(O)ccc3nc2-1 [Topotecan] | 869 | 50.8 | 237 | 550 | 23.3 | 197 | 323 | 136 | 123 | 90.9 | 173 | 52.4 | 42.5 | 202 | 44.1
CN[C@@H]1C[C@H]2O[C@@](C)([C@@H]1OC)n1c3ccccc3c3c4c(c5c6ccccc6n2c5c31)C(=O)N[C@H]4O [UCN-01] | 2130 | 459 | 158 | 159 | 257 | 24.9 | 121 | 63.3 | 44.8 | 24.8 | 19.3 | 29.5 | 51.9 | 44.3 | 85.9
CCCCC(=O)OCC(=O)[C@]1(O)Cc2c(O)c3c(c(O)c2[C@@H](O[C@H]2C[C@H](NC(=O)C(F)(F)F)[C@H](O)[C@H](C)O2)C1)C(=O)c1c(OC)cccc1C3=O [Valrubicin] | > 5000 | > 5000 | > 5000 | > 5000 | > 5000 | > 5000 | 422 | 264 | 238 | 258 | 534 | 233 | 285 | 306 | 97
CC[C@@H]1C(=O)N(C)c2cnc(Nc3ccc(C(=O)N[C@H]4CC[C@H](N5CCN(CC6CC6)CC5)CC4)cc3OC)nc2N1C(C)C [Volasertib] | > 1000 | 29.3 | 25.2 | 12.7 | 34.1 | 2.68 | 42.1 | 10.6 | 34.5 | 33.2 | 16.1 | 15.4 | 33.6 | 7.29 | 17.7
O=C(CCCCCCC(=O)Nc1ccccc1)NO [Vorinostat] | 2450 | 3780 | 3430 | 2660 | 3150 | 2570 | 2820 | 1770 | 1310 | 1570 | 1680 | 2090 | 1690 | 2250 | 687
